Laboratory results published in patent publication US12077537B2 (Gilead Sciences, Inc., priority 2020, dated 2024).

System: HIV-IIIb
Assay: Antiviral assay in MT4 cells
Assay type: cell-based
Conditions: Human immunodeficiency virus 1, MT4, 120 h; MT-4 cells mixed with HIV-IIIb at m.o.i. 0.003; 5 days at 37° C.; CellTiter-Glo luminescence; 50% decrease in signal, a measure of HIV-1 replication
Summary of the method: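 MT-4 cells were infected with HIV-IIIb at m.o.i. 0.003 for 1 hour, then added to 3-fold serially diluted compound (10 concentrations, quadruplicate) in medium with 10% FBS. After 5 days at 37° C, cell viability was read by CellTiter-Glo chemiluminescence.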

Row | Compound | EC50 [nM]
1 | CN(C)CCNc1nc2nc([C@H](Cc3cc(F)cc(F)c3)NC(=O)Cn3nc(C(F)(F)F)c4c3C(F)(F)[C@@H]3C[C@H]43)c(-c3cccc4c(NS(C)(=O)=O)nn(C)c34)cc2s1 [Example 65, 2-((3bS,4aR)-5,5-difluoro-3-(trifluoromethyl)-3b,4,4a,5-tetrahydro-1H-cyclopropa[3,4]cyclopenta[1,2-c]pyrazol-1-yl)-N—((S)-2-(3,5-difluorophenyl)-1-(2-((2-(dimethylamino)ethyl)amino)-6-(1-methyl-3-(methylsulfonamido)-1H-indazol-7-yl)thiazolo[4,5-b]pyridin-5-yl)ethyl)acetamide] | 23.6
2 | CN(C)C1CCN(c2nc3nc([C@H](Cc4cc(F)cc(F)c4)NC(=O)Cn4nc(C(F)(F)F)c5c4C(F)(F)[C@@H]4C[C@H]54)c(-c4cccc5c(NS(C)(=O)=O)nn(C)c45)cc3s2)CC1 [Example 66, 2-((3bS,4aR)-5,5-difluoro-3-(trifluoromethyl)-3b,4,4a,5-tetrahydro-1H-cyclopropa[3,4]cyclopenta[1,2-c]pyrazol-1-yl)-N—((S)-2-(3,5-difluorophenyl)-1-(2-(4-(dimethylamino)piperidin-1-yl)-6-(1-methyl-3-(methylsulfonamido)-1H-indazol-7-yl)thiazolo[4,5-b]pyridin-5-yl)ethyl)acetamide] | 22.4
3 | CCN1CCN(c2nc3nc([C@H](Cc4cc(F)cc(F)c4)NC(=O)Cn4nc(C(F)(F)F)c5c4C(F)(F)[C@@H]4C[C@H]54)c(-c4cccc5c(NS(C)(=O)=O)nn(C)c45)cc3s2)CC1 [Example 68, 2-((3bS,4aR)-5,5-difluoro-3-(trifluoromethyl)-3b,4,4a,5-tetrahydro-1H-cyclopropa[3,4]cyclopenta[1,2-c]pyrazol-1-yl)-N—((S)-2-(3,5-difluorophenyl)-1-(2-(4-ethylpiperazin-1-yl)-6-(1-methyl-3-(methylsulfonamido)-1H-indazol-7-yl)thiazolo[4,5-b]pyridin-5-yl)ethyl)acetamide] | 6.7
4 | Cn1nc(NS(C)(=O)=O)c2cccc(-c3cc4sc(NCC5(O)CC5)nc4nc3[C@H](Cc3cc(F)cc(F)c3)NC(=O)Cn3nc(C(F)(F)F)c4c3C(F)(F)[C@@H]3C[C@H]43)c21 [Example 70, 2-((3bS,4aR)-5,5-difluoro-3-(trifluoromethyl)-3b,4,4a,5-tetrahydro-1H-cyclopropa[3,4]cyclopenta[1,2-c]pyrazol-1-yl)-N—((S)-2-(3,5-difluorophenyl)-1-(2-(((1-hydroxycyclopropyl)methyl)amino)-6-(1-methyl-3-(methylsulfonamido)-1H-indazol-7-yl)thiazolo[4,5-b]pyridin-5-yl)ethyl)acetamide] | 13.8
5 | Cn1nc(NS(C)(=O)=O)c2cccc(-c3cc4sc(N5CC(C(N)=O)C5)nc4nc3[C@H](Cc3cc(F)cc(F)c3)NC(=O)Cn3nc(C(F)(F)F)c4c3C(F)(F)[C@@H]3C[C@H]43)c21 [Example 73, 1-(5-((S)-1-(2-((3bS,4aR)-5,5-difluoro-3-(trifluoromethyl)-3b,4,4a,5-tetrahydro-1H-cyclopropa[3,4]cyclopenta[1,2-c]pyrazol-1-yl)acetamido)-2-(3,5-difluorophenyl)ethyl)-6-(1-methyl-3-(methylsulfonamido)-1H-indazol-7-yl)thiazolo[4,5-b]pyridin-2-yl)azetidine-3-carboxamide] | 67.7
6 | Cn1nc(NS(C)(=O)=O)c2cccc(-c3cc4sc(N5CCN(C6COC6)CC5)nc4nc3[C@H](Cc3cc(F)cc(F)c3)NC(=O)Cn3nc(C(F)(F)F)c4c3C(F)(F)[C@@H]3C[C@H]43)c21 [Example 76, 2-((3bS,4aR)-5,5-difluoro-3-(trifluoromethyl)-3b,4,4a,5-tetrahydro-1H-cyclopropa[3,4]cyclopenta[1,2-c]pyrazol-1-yl)-N—((S)-2-(3,5-difluorophenyl)-1-(6-(1-methyl-3-(methylsulfonamido)-1H-indazol-7-yl)-2-(4-(oxetan-3-yl)piperazin-1-yl)thiazolo[4,5-b]pyridin-5-yl)ethyl)acetamide] | 4.5
7 | Cn1nc(NS(C)(=O)=O)c2cccc(-c3cc4sc(N5CC6(COC6)C5)nc4nc3[C@H](Cc3cc(F)cc(F)c3)NC(=O)Cn3nc(C(F)(F)F)c4c3C(F)(F)[C@@H]3C[C@H]43)c21 [Example 77, 2-((3bS,4aR)-5,5-difluoro-3-(trifluoromethyl)-3b,4,4a,5-tetrahydro-1H-cyclopropa[3,4]cyclopenta[1,2-c]pyrazol-1-yl)-N—((S)-2-(3,5-difluorophenyl)-1-(6-(1-methyl-3-(methylsulfonamido)-1H-indazol-7-yl)-2-(2-oxa-6-azaspiro[3.3]heptan-6-yl)thiazolo[4,5-b]pyridin-5-yl)ethyl)acetamide] | 15.8
8 | CNc1nc2nc([C@H](Cc3cc(F)cc(F)c3)NC(=O)Cn3nc(C(F)(F)F)c4c3C(F)(F)[C@@H]3C[C@H]43)c(-c3cccc4c(NS(C)(=O)=O)nn(C)c34)cc2s1 [Example 79, 2-((3bS,4aR)-5,5-difluoro-3-(trifluoromethyl)-3b,4,4a,5-tetrahydro-1H-cyclopropa[3,4]cyclopenta[1,2-c]pyrazol-1-yl)-N—((S)-2-(3,5-difluorophenyl)-1-(6-(1-methyl-3-(methylsulfonamido)-1H-indazol-7-yl)-2-(methylamino)thiazolo[4,5-b]pyridin-5-yl)ethyl)acetamide] | 14.9

More lines, in order of falling EC50, values ahead:

Row | EC50 [nM] | Compound
9 | 57.3 | Cn1nc(NS(C)(=O)=O)c2cccc(-c3cc4sc(N5CCC5C(N)=O)nc4nc3[C@H](Cc3cc(F)cc(F)c3)NC(=O)Cn3nc(C(F)(F)F)c4c3C(F)(F)[C@@H]3C[C@H]43)c21 (stereo partly drawn) [Example 74, 1-(5-((S)-1-(2-((3bS,4aR)-5,5-difluoro-3-(trifluoromethyl)-3b,4,4a,5-tetrahydro-1H-cyclopropa[3,4]cyclopenta[1,2-c]pyrazol-1-yl)acetamido)-2-(3,5-difluorophenyl)ethyl)-6-(1-methyl-3-(methylsulfonamido)-1H-indazol-7-yl)thiazolo[4,5-b]pyridin-2-yl)azetidine-2-carboxamide]
10 | 52.2 | Cn1nc(NS(C)(=O)=O)c2cccc(-c3cc4sc(NCc5ncc[nH]5)nc4nc3[C@H](Cc3cc(F)cc(F)c3)NC(=O)Cn3nc(C(F)(F)F)c4c3C(F)(F)[C@@H]3C[C@H]43)c21 [Example 71, N—((S)-1-(2-(((1H-imidazol-2-yl)methyl)amino)-6-(1-methyl-3-(methylsulfonamido)-1H-indazol-7-yl)thiazolo[4,5-b]pyridin-5-yl)-2-(3,5-difluorophenyl)ethyl)-2-((3bS,4aR)-5,5-difluoro-3-(trifluoromethyl)-3b,4,4a,5-tetrahydro-1H-cyclopropa[3,4]cyclopenta[1,2-c]pyrazol-1-yl)acetamide]
11 | 42.7 | CC1CC1Nc1nc2nc([C@H](Cc3cc(F)cc(F)c3)NC(=O)Cn3nc(C(F)(F)F)c4c3C(F)(F)[C@@H]3C[C@H]43)c(-c3cccc4c(NS(C)(=O)=O)nn(C)c34)cc2s1 (stereo partly drawn) [Example 78, 2-((3bS,4aR)-5,5-difluoro-3-(trifluoromethyl)-3b,4,4a,5-tetrahydro-1H-cyclopropa[3,4]cyclopenta[1,2-c]pyrazol-1-yl)-N-((1S)-2-(3,5-difluorophenyl)-1-(6-(1-methyl-3-(methylsulfonamido)-1H-indazol-7-yl)-2-((2-methylcyclopropyl)amino)thiazolo[4,5-b]pyridin-5-yl)ethyl)acetamide]
12 | 32 | Cn1nc(NS(C)(=O)=O)c2cccc(-c3cc4sc(N5CCNC(=O)C5)nc4nc3[C@H](Cc3cc(F)cc(F)c3)NC(=O)Cn3nc(C(F)(F)F)c4c3C(F)(F)[C@@H]3C[C@H]43)c21 [Example 72, 2-((3bS,4aR)-5,5-difluoro-3-(trifluoromethyl)-3b,4,4a,5-tetrahydro-1H-cyclopropa[3,4]cyclopenta[1,2-c]pyrazol-1-yl)-N—((S)-2-(3,5-difluorophenyl)-1-(6-(1-methyl-3-(methylsulfonamido)-1H-indazol-7-yl)-2-(3-oxopiperazin-1-yl)thiazolo[4,5-b]pyridin-5-yl)ethyl)acetamide]
13 | 27.3 | CC(CN(C)C)Nc1nc2nc([C@H](Cc3cc(F)cc(F)c3)NC(=O)Cn3nc(C(F)(F)F)c4c3C(F)(F)[C@@H]3C[C@H]43)c(-c3cccc4c(NS(C)(=O)=O)nn(C)c34)cc2s1 (stereo partly drawn) [Example 67, 2-((3bS,4aR)-5,5-difluoro-3-(trifluoromethyl)-3b,4,4a,5-tetrahydro-1H-cyclopropa[3,4]cyclopenta[1,2-c]pyrazol-1-yl)-N-((1S)-2-(3,5-difluorophenyl)-1-(2-((1-(dimethylamino)propan-2-yl)amino)-6-(1-methyl-3-(methylsulfonamido)-1H-indazol-7-yl)thiazolo[4,5-b]pyridin-5-yl)ethyl)acetamide]
14 | 9.4 | Cn1nc(NS(C)(=O)=O)c2cccc(-c3cc4sc(NCCN5CCOCC5)nc4nc3[C@H](Cc3cc(F)cc(F)c3)NC(=O)Cn3nc(C(F)(F)F)c4c3C(F)(F)[C@@H]3C[C@H]43)c21 [Example 75, 2-((3bS,4aR)-5,5-difluoro-3-(trifluoromethyl)-3b,4,4a,5-tetrahydro-1H-cyclopropa[3,4]cyclopenta[1,2-c]pyrazol-1-yl)-N—((S)-2-(3,5-difluorophenyl)-1-(6-(1-methyl-3-(methylsulfonamido)-1H-indazol-7-yl)-2-((2-morpholinoethyl)amino)thiazolo[4,5-b]pyridin-5-yl)ethyl)acetamide]
15 | 9.2 | COCCNc1nc2nc([C@H](Cc3cc(F)cc(F)c3)NC(=O)Cn3nc(C(F)(F)F)c4c3C(F)(F)[C@@H]3C[C@H]43)c(-c3cccc4c(NS(C)(=O)=O)nn(C)c34)cc2s1 [Example 69, 2-((3bS,4aR)-5,5-difluoro-3-(trifluoromethyl)-3b,4,4a,5-tetrahydro-1H-cyclopropa[3,4]cyclopenta[1,2-c]pyrazol-1-yl)-N—((S)-2-(3,5-difluorophenyl)-1-(2-((2-methoxyethyl)amino)-6-(1-methyl-3-(methylsulfonamido)-1H-indazol-7-yl)thiazolo[4,5-b]pyridin-5-yl)ethyl)acetamide]
